The source of these data is patent publication US10428027B2, “Sulfinylphenyl or sulfonimidoylphenyl benzazepines” (Hoffmann La-Roche Inc., priority 2015, dated 2019).

One assay has as its target T1, human TLR7 (Homo sapiens, UniProt Q9NYK1).
T1 construct: host or cells: HEK-Blue human TLR7 cells (HEK293-derived; own knowledge: stably transfected with the human TLR7 gene)
T1 sequence (Q9NYK1 27-1049): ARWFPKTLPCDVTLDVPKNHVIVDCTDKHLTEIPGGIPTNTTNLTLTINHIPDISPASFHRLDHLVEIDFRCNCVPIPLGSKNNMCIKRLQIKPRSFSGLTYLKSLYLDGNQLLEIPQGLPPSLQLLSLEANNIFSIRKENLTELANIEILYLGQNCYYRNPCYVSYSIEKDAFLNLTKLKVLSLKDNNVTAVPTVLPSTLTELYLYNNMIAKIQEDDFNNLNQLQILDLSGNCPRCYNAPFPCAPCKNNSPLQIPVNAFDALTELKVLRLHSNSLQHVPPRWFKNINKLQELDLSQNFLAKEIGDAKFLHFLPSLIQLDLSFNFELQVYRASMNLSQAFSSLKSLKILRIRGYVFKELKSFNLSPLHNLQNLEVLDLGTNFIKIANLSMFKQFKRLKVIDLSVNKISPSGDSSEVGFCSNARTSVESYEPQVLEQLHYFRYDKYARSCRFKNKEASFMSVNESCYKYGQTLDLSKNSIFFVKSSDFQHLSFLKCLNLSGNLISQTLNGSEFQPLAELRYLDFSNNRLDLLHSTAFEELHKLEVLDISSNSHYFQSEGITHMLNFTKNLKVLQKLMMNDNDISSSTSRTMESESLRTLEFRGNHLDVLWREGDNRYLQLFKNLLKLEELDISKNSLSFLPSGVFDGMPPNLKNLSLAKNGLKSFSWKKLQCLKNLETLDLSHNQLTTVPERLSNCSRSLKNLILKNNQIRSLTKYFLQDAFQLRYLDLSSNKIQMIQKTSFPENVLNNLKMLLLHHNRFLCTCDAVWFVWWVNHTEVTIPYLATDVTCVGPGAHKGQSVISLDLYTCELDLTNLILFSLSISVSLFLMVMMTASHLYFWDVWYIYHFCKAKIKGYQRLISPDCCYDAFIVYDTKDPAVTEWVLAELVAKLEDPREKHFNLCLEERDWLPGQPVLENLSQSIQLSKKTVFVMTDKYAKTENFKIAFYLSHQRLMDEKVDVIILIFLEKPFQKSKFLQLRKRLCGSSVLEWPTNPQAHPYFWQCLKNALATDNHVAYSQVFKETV
As to the kind of experiment: HEK-Blue human TLR7 cells, NF-κB SEAP reporter assay. Particulars: stimulation for 20 hours, SEAP reporter read at 640 nm. Format: cell-based. From the text:
(§1) For TLR8 and TLR7 activity testing, HEK-Blue human TLR8 or TLR7 cells (Invivogen, San Diego, Calif., USA) are used, respectively. These cells are designed for studying the stimulation of human TLR8 or TLR7 by monitoring the activation of NF-κB. A SEAP (secreted embryonic alkaline phosphatase) reporter gene is placed under the control of the IFN-b minimal promoter fused to five NF-κB and AP-1-binding sites. Therefore the reporter expression is regulated by the NF-κB promoter upon stimulation of human TLR8 or TLR7 for 20 hours. The cell culture supernatant SEAP reporter activity was determined using Quanti Blue kit (Invivogen, San Diego, Ca, USA) at a wavelength of 640 nm, a detection medium that turns purple/blue in the presence of alkaline phosphatase.

The next assay deals with T2, human TLR8 (Homo sapiens, UniProt Q9NR97).
T2 construct: host or cells: HEK-Blue human TLR8 cells (HEK293-derived; own knowledge: stably transfected with the human TLR8 gene)
T2 sequence (Q9NR97 27-1041): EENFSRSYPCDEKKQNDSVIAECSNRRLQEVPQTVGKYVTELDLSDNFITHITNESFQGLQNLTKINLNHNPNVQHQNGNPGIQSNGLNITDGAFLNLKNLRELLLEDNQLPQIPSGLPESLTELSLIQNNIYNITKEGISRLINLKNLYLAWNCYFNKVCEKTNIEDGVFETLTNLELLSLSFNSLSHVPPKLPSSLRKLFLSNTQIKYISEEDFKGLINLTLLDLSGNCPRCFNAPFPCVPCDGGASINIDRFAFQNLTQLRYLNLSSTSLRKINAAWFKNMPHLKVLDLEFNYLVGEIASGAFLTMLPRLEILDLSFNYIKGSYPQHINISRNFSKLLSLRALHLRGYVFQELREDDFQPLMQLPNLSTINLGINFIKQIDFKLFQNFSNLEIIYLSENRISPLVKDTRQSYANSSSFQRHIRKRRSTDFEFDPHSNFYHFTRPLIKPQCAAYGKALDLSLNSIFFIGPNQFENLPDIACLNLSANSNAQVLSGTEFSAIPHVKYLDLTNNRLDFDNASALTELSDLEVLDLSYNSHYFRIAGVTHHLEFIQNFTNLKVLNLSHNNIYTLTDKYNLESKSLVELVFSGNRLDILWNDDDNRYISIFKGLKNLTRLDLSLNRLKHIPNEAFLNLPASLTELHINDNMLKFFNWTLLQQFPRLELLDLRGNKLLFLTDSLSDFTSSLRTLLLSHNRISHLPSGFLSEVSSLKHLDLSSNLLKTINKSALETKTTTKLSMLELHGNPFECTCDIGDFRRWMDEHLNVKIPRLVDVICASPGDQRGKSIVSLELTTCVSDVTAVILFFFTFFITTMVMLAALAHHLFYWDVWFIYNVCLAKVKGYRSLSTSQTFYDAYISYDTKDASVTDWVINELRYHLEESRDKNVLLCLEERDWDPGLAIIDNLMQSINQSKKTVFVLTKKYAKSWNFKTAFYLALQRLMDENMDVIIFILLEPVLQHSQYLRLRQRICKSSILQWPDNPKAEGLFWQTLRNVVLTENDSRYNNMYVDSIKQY
As to the kind of experiment: HEK-Blue human TLR8 cells, NF-κB SEAP reporter assay. The assay is classed as cell-based. As to conditions: stimulation for 20 hours, SEAP reporter read at 640 nm.
Text: as §1

pEC50: −log10 of the molar value.

For the compound `CCCN(CCC)C(=O)C1=Cc2ccc(-c3ccc([S+](C)[O-])cc3)cc2N=C(N)C1` (stereo not shown) [Example 1, 2-Amino-8-(4-methylsulfinylphenyl)-N,N-dipropyl-3H-1-benzazepine-4-carboxamide], the pEC50 on human TLR7 was 4.72; on human TLR8, 7.59.
Turning to `CCCN(CCC)C(=O)C1=Cc2ccc(-c3ccc(S(C)(=N)=O)cc3)cc2N=C(N)C1` (stereo not shown) [Example 2, 2-Amino-8-[4-(methylsulfonimidoyl)phenyl]-N,N-dipropyl-3H-1-benzazepine-4-carboxamide], the values for the pEC50 on human TLR7 and at human TLR8 were 4.60 and 7.60, respectively.
Take `CCCN(CCC)C(=O)C1=Cc2ccc(-c3cccc(S(C)(=O)=NCCOCCO)c3)cc2N=C(N)C1` (stereo not shown) [Example 3, 2-Amino-8-[3-[N-[2-(2-hydroxyethoxy)ethyl]-S-methyl-sulfonimidoyl]phenyl]-N,N-dipropyl-3H-1-benzazepine-4-carboxamide]: the results for the pEC50 at human TLR7 and on human TLR8 were 4.26 and 7.96, respectively.
With `CCCN(CCC)C(=O)C1=Cc2ccc(-c3cncc([S+](C)[O-])c3)cc2N=C(N)C1` (stereo not shown) [Example 4, 2-Amino-8-(5-methylsulfinyl-3-pyridyl)-N,N-dipropyl-3H-1-benzazepine-4-carboxamide], the figures for the pEC50 on human TLR7 and on human TLR8 were 5.62 and 8.10, respectively.
For `CCCN(CCC)C(=O)C1=Cc2ccc(-c3cccc([S+](C)[O-])c3)cc2N=C(N)C1` (stereo not shown) [Example 5, 2-Amino-8-(3-methylsulfinylphenyl)-N,N-dipropyl-3H-1-benzazepine-4-carboxamide], in that order: 4.92 and 8.40.
Consider `CCCN(CCC)C(=O)C1=Cc2ccc(-c3cncc(S(C)(=N)=O)c3)cc2N=C(N)C1` (stereo not shown) [Example 6, 2-Amino-8-[5-(methylsulfonimidoyl)-3-pyridyl]-N,N-dipropyl-3H-1-benzazepine-4-carboxamide], for which the results for the negative logarithm of the EC50 (pEC50) at human TLR7 and on human TLR8 were 4.83 and 7.55, respectively.
Taken in the same sequence, the figures for `CCCN(CCC)C(=O)C1=Cc2ccc(-c3cccc(S(C)(=N)=O)c3)cc2N=C(N)C1` (stereo not shown) [Example 7, 22-Amino-8-[3-(methylsulfonimidoyl)phenyl]-N,N-dipropyl-3H-1-benzazepine-4-carboxamide] were 4.81 and 7.89.
As for `CCCN(CCC)C(=O)C1=Cc2ccc(-c3ccc([S+]([O-])CC)cc3)cc2N=C(N)C1` (stereo not shown) [Example 8, 2-Amino-8-(4-ethylsulfinylphenyl)-N,N-dipropyl-3H-1-benzazepine-4-carboxamide], the results for the pEC50 on human TLR7 and on human TLR8 were 4.64 and 7.68, respectively.
In the case of `CCCN(CCC)C(=O)C1=Cc2ccc(-c3ccc(S(=N)(=O)CC)cc3)cc2N=C(N)C1` (stereo not shown) [Example 9, 2-Amino-8-[4-(ethylsulfonimidoyl)phenyl]-N,N-dipropyl-3H-1-benzazepine-4-carboxamide], the pEC50 is 4.49 at human TLR7 and 7.60 at human TLR8.
In the case of `CCCN(CCC)C(=O)C1=Cc2ccc(-c3cccc([S+]([O-])CC)c3)cc2N=C(N)C1` (stereo not shown) [Example 10, 2-Amino-8-(3-ethylsulfinylphenyl)-N,N-dipropyl-3H-1-benzazepine-4-carboxamide], the pEC50 at human TLR7 is 4.80; on human TLR8 it was 8.10.
In the case of `CCCN(CCC)C(=O)C1=Cc2ccc(-c3cccc(S(=N)(=O)CC)c3)cc2N=C(N)C1` (stereo not shown) [Example 11, 2-Amino-8-[3-(ethylsulfonimidoyl)phenyl]-N,N-dipropyl-3H-1-benzazepine-4-carboxamide], the pEC50 on human TLR7 was 4.41; on human TLR8, 7.82.
